Measured values published in US20240270800A1, “ANTIMICROBIAL CaNCR PEPTIDE VARIANTS” (Donald Danforth Plant Science Center, priority 2021, published 2024).
Where a SMILES comes first, the peptide text is derived from it. Bridges are numbered along the chain shown (N, C = ends).

Tested on: Botrytis cinerea T-4
Test: Determination of minimum inhibitory concentration, 96-well plate spore assay with resazurin viability
Assay type: cell-based
Conditions: SFM supplemented with 100 mM NaCl
Method: The fungal strains of Botrytis cinerea T-4 were cultured on V8 growth medium. Fungal spores were harvested by flooding the fungal growth plates with sterile water. The spore suspension was filtered through two layers of Miracloth, centrifuged at 13,600 rpm for 1 min, washed, and re-suspended in low-salt Synthetic Fungal Medium (SFM) (U.S. Pat. No. 6,316,407). The spore suspension of each fungal pathogen was adjusted to equivalent spore density using a hemocytometer ([…]).
Anti-fungal activity of NCR13_WT and NCR13_V2 against B. cinerea was assessed using the 2-fold dilution series of each peptide. The antifungal activity was determined spectrophotometrically using the 96-well plate assay (Sagaram et al., 2011). The 45 μL of the peptide dilution ([…]) was added to each well of the microtiter plate containing 45 μL of (˜10^5 spores/ml) the spore suspension. The quantitative fungal growth inhibition was determined by measuring the absorbance at 595 nm using a (Tecan Infinite M200 ProTecan Systems Inc., San Jose, CA) microplate reader after 48 h. The fungal cell viability was determined using the resazurin cell viability assay (Chadha S & Kale SP, 2015; Li et al.; 2019). After incubation of the pathogen/peptide mixture for 48 h, 10 μl of 0.1% resazurin solution was added to each well and re-incubated overnight. […]

## CC[C@H](C)[C@@H]1NC(=O)[C@@H]2CSSC[C@H](NC(=O)[C@@H]3CCCN3C(=O)[C@H](CCCCN)NC(=O)[C@@H](N)[C@@H](C)O)C(=O)N[C@@H](CCC(N)=O)C(=O)N[C@@H](CO)C(=O)N[C@@H](CC(=O)O)C(=O)N[C@@H](CCCCN)C(=O)N[C@@H](CC(=O)O)C(=O)N[C@H]3CSSC[C@H](NC(=O)[C@H](Cc4ccccc4)NC(=O)CNC(=O)[C@H](CC(N)=O)NC1=O)C(=O)N[C@@H](CCCCN)C(=O)N[C@H](C(=O)N[C@H](C(=O)N[C@@H](CCCNC(=N)N)C(=O)O)C(C)C)CSSC[C@H](NC(=O)[C@H](C)NC(=O)[C@H](Cc1ccccc1)NC(=O)[C@H](CCCCN)NC(=O)[C@H](CCCCN)NC3=O)C(=O)N[C@@H](CCCNC(=N)N)C(=O)N[C@@H](CCCCN)C(=O)N1CCC[C@H]1C(=O)N[C@@H](CCCCN)C(=O)N[C@@H](C(C)C)C(=O)N1CCC[C@H]1C(=O)N[C@@H](CCCCN)C(=O)N2 [CaNCR13] (H-TKPCQSDKDCKKFACRKPKVPKCINGFCKCVR-OH; disulfide 4-23, 10-28, 15-30)
  MIC (SFM + 100 mM NaCl): No Activity
